# Results reported in US6809091B1, “Substances capable of inducing apoptosis” (Takara Bio Inc., priority 1998, dated 2004).
# Like-named read-outs stand apart in the source and are kept apart here.
# How the values were obtained:
# [1] = test system: human promyelocytic leukemia HL-60; test: MTT method: cell growth suppressing / apoptosis-inducing activity; format: cell-based; details: for apoptosis-inducing activity / cancer cell growth suppressing activity: HL-60, MTT method of Example 1, 48 hours; for cancer cell growth suppressing activity and apoptic body formation: HL-60, MTT method of Example 4-(2), sample in 50% ethanol, 16 hours
# Method: Heated and non-heated substances of each of them were sterilized by a membrane filter of 0.22 μm to prepare samples for the apoptosis-inducing activity. Those samples were diluted with aseptic distilled water to an extent of 2-, 4-, 8-, 16- and 32-fold, their activity for suppressing the cell growth to the human promyelocytic leukemia HL-60 was measured as follows and their intensity or the apoptosis-inducing activity was compared.
# Thus, 10 μl of each of the diluted solutions or 10 μl of aseptic distilled water were placed in a well of a 96-well microtiter plate. Then 90 μl of an RPMI 1640 medium (manufactured by Nissui) containing 10% of fetal bovine serum (manufactured by Gibco) which contained 5000 HL-60 cells (ATCC CCL240) were added thereto and an incubation was carried out at 37° C. for 48 hours in the presence of 5% carbon dioxide gas. After observing the shape of the cells under an optical microscope, 10 μl of a phosphate-buffered aqueous saline solution containing 5 mg/ml of 3-(4,5-dimethylthiazol-2-yl)-2,5-diphenyltetrazolium bromide (MTT; manufactured by Sigma), an incubation was continued for four hours more and state of growth of cells and formation of formazan produced in the cells were observed under a microscope. Further, 100 μl of 2-propanol containing 0.04N HCl were added thereto followed by well stirring and the absorbance at 590 nm was measured and used as a degree of growth of cells (an MTT method).
# The solvent of the fraction was appropriately evaporated to substitute with a 50% aqueous solution of ethanol and the activity for suppressing the growth of cancer cells was measured by an MTT method mentioned in Example 1 except that the sample was diluted to a two-fold series using a 50% aqueous solution of ethanol and 2 μl of each of the diluted solutions or 2 μl of a 50% aqueous solution of ethanol were placed in a well of a flat-bottom 96-well microplate. Time for incubation was 16 hours.
# DSEK cells = test: cell growth of DSEK cells (rheumatism model in vitro), Premix WST-1; format: cell-based, human; details: for IC50: Homo sapiens; for inhibition of growth of rheumatism cells / antirheumatic activity: compared with the case where PBS was added
# Method: (2) DSEK cells (owned by Department of Second Internal Medicine, Total Medical Center, Saitama Medical College, as a rhematism model in vitro) which were fibroblast cell strains established from synovial membrane from a patient suffering from human chronic rheumatism were incubated in an Iscov-MEM medium (IMDM; manufactured by Gibco BRL) containing 10% of FBS (manufactured by BioWhittaker) at 37° C. in the presence of 5% CO2 until the cells saturated in a incubator, a trypsin-EDTA solution (manufactured by BioWhittaker) was suspended in the above medium to an extent of 3×10^4 cells/ml and each 200 μl of the suspension was placed in each well of a 96-well microtiter plate (manufactured by Falcon). When the cells were almost in a state of 80% saturation after 5-7 days from incubation, the medium was exchanged and 200 μl of the above medium containing 50, 75, 100 or 150 μM of 4-hydroxy-2-cyclopenten-1-one or 4,5-dihydroxy-2-pentenal were added thereto.
# A time course of 96 hours was adopted and, every 24 hours, 10 μl of Premix WST-1 (MK 400; manufactured by Takara Shuzo) were added followed by reacting at 37° C. for 3.5 hours and the value (A450-650) obtained by subtracting the absorbance at 650 nm (A650) from that at 450 nm (A450) was defined as a degree of cell growth.
# (3) DSEK cells were prepared under the conditions as mentioned in Example 15-(2) and 20 μl of medium containing 25, 50, 75, 100, 200 or 400 μM of 4,5-dihydroxy-2-pentenal, 4-hydroxy-2-cyclopenten-1-one, 4-(9-guaninyl)-2-cyclopenten1-one or 2-(3,4-dihydroxy-1-butenyl)-4-(2-formylvinyl)-1,3-dioxolane were added thereto.
# A time course of 72 hours was adopted and, every 24 hours, degree of cell growth was measured with a lapse of time. IC50 of each of the compounds was measured as well.
# HL-60 cells [2] = test: Trypan Blue staining, survival rate; format: cell-based; details: Homo sapiens, HL-60, 24 hours, concentration where survival rate becomes 50%, read-out: Survival Rate50
# Method: (3) The cells which were incubated for 24 hours by the same manner as in Example 9-(2) were stained with 0.4% Trypan Blue and observed under an optical microscope, numbers of viable cells which were not stained and of dead cells which were stained in blue were measured, concentration (survival rate50) of each of the samples where survival rate becomes 50% was determined and the result is given in Table 1.
# HL-60 cells [3] = test: observation of apoptosis under an optical microscope; format: cell-based, human; details: HL-60, 24 hours
# Method: (1) HL-60 cells (ATCC CCL-240) incubated at 37° C. in an RPMI 1640 medium (manufactured by BioWhittaker) containing 10% of fetal bovine serum (manufactured by JRH) treated at 56° C. for 30 minutes were suspended in an RPMI 1640 medium to make the concentration 2.5×10^5 cells/5 ml.
# To 5 ml of this suspension were added 10 μl of 12.5 mM, 25 mM, 50 mM or 100 mM of a 70% ethanolic solution of 4,5-dihydroxy-2-pentenal prepared in Example 6-(1), 0.05 mM, 0.5 mM, 5 mM or 50 mM of a 70% ethanolic solution of 4-hydroxy-2-cyclopenten-1-[…] prepared in Example 6-(1), 5 mM, 10 mM or 20 mM of a 70% ethanolic solution of 4-(9-adeninyl)-2-cyclopenten-1-one prepared in Example 4-(4), 2.5 mM, 5 mM, 15 mM or 25 mM of a 70% ethanolic solution of 4-(9-guaninyl)-2-cyclopenten-1-one prepared in Example 4-(5), 75 mM, 150 mM or 300 mM of a 70% ethanolic solution of 1,5-epoxy-1-hydroxy-3-penten-2-one prepared in Example 5-(2) or 5 mM, 25 mM or 50 mM of a 70% ethanolic solution of 2-(trans-3,4-dihydroxy-1-butenyl)-4-(trans-2-formylvinyl)-1,3-dioxolane prepared in Example 6-(2) followed by incubating at 37° C. in the presence of 5% carbon dioxide gas for 24 hours.
# Incidentally, such phenomena were not noted in the incubated cells to which […] of 70% ethanolic solution were added used as a control.
# [4] = 24 hours, Example 15-(3), read-out: IC50
# [5] = 72 hours, Example 15-(3), read-out: IC50
# [6] = 48 hours, Example 15-(2), read-out: IC50, 50% cell growth inhibiting concentration
# [7] = 96 hours, Example 15-(2), read-out: IC50, 50% cell growth inhibiting concentration
Structure (SMILES),IC50 (DSEK cells; [4]),IC50 (DSEK cells; [5]),inhibition of growth of rheumatism cells / antirheumatic activity (DSEK cells),IC50 (HL-60 cells [2]),"final concentration at which aggregation of nuclei, reduction in size of the cells and formation of apoptic body were confirmed (HL-60 cells [3])",cancer cell growth suppressing activity and apoptic body formation [1],"Degree of Cell Growth (DSEK cells; 50 μM, 24 hours)","Degree of Cell Growth (DSEK cells; 50 μM, 48 hours)","Degree of Cell Growth (DSEK cells; 50 μM, 72 hours)","Degree of Cell Growth (DSEK cells; 50 μM, 96 hours)","Degree of Cell Growth (DSEK cells; 75 μM, 24 hours)","Degree of Cell Growth (DSEK cells; 75 μM, 48 hours)","Degree of Cell Growth (DSEK cells; 75 μM, 72 hours)","Degree of Cell Growth (DSEK cells; 75 μM, 96 hours)","Degree of Cell Growth (DSEK cells; 100 μM, 24 hours)","Degree of Cell Growth (DSEK cells; 100 μM, 48 hours)","Degree of Cell Growth (DSEK cells; 100 μM, 72 hours)","Degree of Cell Growth (DSEK cells; 100 μM, 96 hours)","Degree of Cell Growth (DSEK cells; 150 μM, 24 hours)","Degree of Cell Growth (DSEK cells; 150 μM, 48 hours)",also measured
Nc1nc2c(ncn2C2C=CC(=O)C2)c(=O)[nH]1 (stereo not shown) [4-(9-guaninyl)-2-cyclopenten-1-one],132 µM,67 µM,significant inhibition,67.9 µM,≥ 39 µM,,,,,,,,,,,,,,,,"concentration of dried product showing deformation and apoptic body formation in the cells ([1]; HL-60, MTT assay): about 13 μg/ml"
"O=CC=CC(O)CO (single isomer, unassigned) [4,5-dihydroxy-2-pentenal, trans-4,5-dihydroxy-2-pentenal]",232 µM,119 µM,significant inhibition,124 µM,≥ 1 µM,strong activity,1.12 A450-650,0.83 A450-650,0.96 A450-650,0.98 A450-650,1.11 A450-650,0.77 A450-650,0.67 A450-650,0.59 A450-650,1.02 A450-650,0.63 A450-650,0.54 A450-650,0.59 A450-650,0.96 A450-650,0.61 A450-650,"apoptosis-inducing activity / cancer cell growth suppressing activity [1]: strong; apoptosis-inducing activity / cancer cell growth suppressing activity ([1]; listed as fraction 4): strong activity; Degree of Cell Growth (DSEK cells; 150 μM, 72 hours): 0.41 A450-650; Degree of Cell Growth (DSEK cells; 150 μM, 96 hours): 0.55 A450-650; IC50 (DSEK cells; [6]): 165 µM; IC50 (DSEK cells; [7]): 75 µM"
"O=C/C=C/C1COC(/C=C/C(O)CO)O1 (stereo not drawn) [2-(trans-3,4-dihydroxy-1-butenyl)-4-(trans-2-formylvinyl)-1,3-dioxolane]",267 µM,68 µM,significant inhibition,74.4 µM,≥ 80 µM,noted,,,,,,,,,,,,,,,
O=C1C=CC(O)C1 (stereo not shown) [4-hydroxy-2-cyclopenten-1-one],207 µM,60 µM,significant inhibition,25.5 µM,,strong activity,0.57 A450-650,0.71 A450-650,0.73 A450-650,0.54 A450-650,0.51 A450-650,0.68 A450-650,0.68 A450-650,0.55 A450-650,0.50 A450-650,0.64 A450-650,0.67 A450-650,0.51 A450-650,0.46 A450-650,0.55 A450-650,"Degree of Cell Growth (DSEK cells; 150 μM, 72 hours): 0.63 A450-650; Degree of Cell Growth (DSEK cells; 150 μM, 96 hours): 0.50 A450-650; IC50 (DSEK cells; [6]): 60 µM; IC50 (DSEK cells; [7]): 35 µM"
